Like-named read-outs stand apart in the source and are kept apart here. Each block holds one molecule with its values, some of them ahead of it.
What was measured:
[1] = feeding experiments with rodents and poultry; compared with MHA; cited from earlier work
[2] = in vivo; cited from earlier work
[3] = HMBi applied to a porous support; compared with WO 00/28835; EP 1358805; cited from earlier work
[4] = European Commission report, 25 Apr. 2003; cited from earlier work
[5] = ruminants; published in WO 00/28835; cited from earlier work

melting point: 39.5 °C
Structure (SMILES): CSCCC12OCC(CO1)OC2=O [Example 5, 4-(2-(methylthio)ethyl)-2,5,8-trioxabicyclo[2.2.2]octan-3-one]

Structure (SMILES): CSCCC(=O)C(=O)[O-].[Na+] [sodium salt of α-ketomethionine]
biological value [1]: significantly above that of MHA

Structure (SMILES): CSCCC(O)C(=O)O (stereo not drawn) [MHA, hydroxymethylthiobutyric acid]
supplemented MHA that, after absorption in the small intestine, can pass into metabolism [2]: 20-40%

Structure (SMILES): CSCCC(O)C(=O)OC(C)C (stereo not drawn) [HMBi]
biological value [3]: comparable biological value
absorbed via the rumen wall [4]: approximately 50%
biological value [5]: at least 50%

melting point: 109 °C
Structure (SMILES): CSCCC1(O)OCC(C)(C)COC1=O (racemic) [Example 4, rac-4,4-dimethyl-7-hydroxy-7-(2-(methylthio)ethyl)-6-oxacaprolactone]

Structure (SMILES): CSCCC(N)C(=O)OC(C)(C)C (racemic) [D,L-tert-butylmethionine, reference compound]
biological value [5]: 80%

melting point: 74 °C
Structure (SMILES): CSCCC1(C(=O)O)OCCO1 [Example 2, 2-(2-(methylthio)ethyl)-1,3-dioxolane-2-carboxylic acid]
